pKi: −log10 of the molar value.
Legend:
[1] = biological target: CRBN-DDB1 protein complex (Homo sapiens, UniProt Q96SW2); assay: Fluorescence Polarization (FP) assay, displacement of Cy5-labelled thalidomide; conditions: 25 nM CRBN-DDB1, 5 nM Cy5-labelled thalidomide, read-out: CRBN binding Ki
Description: CRBN-DDB1 protein complex was mixed with Cy5-labelled thalidomide and a compound to be tested (the “test compound”). […] The test solution was added to a 384-well assay plate.
The plate was spun-down (1 min, 1000 rpm, 22° C.) and then shaken using a VibroTurbulator for 10 min at room temperature (20-25° C.), with the frequency set to level 3. The assay plate with protein and the tracer was incubated for 60 min at room temperature (20-25° C.) prior to read-out with a plate reader.
The FP experiment was carried out with various concentrations of the test compounds in order to measure Ki values.

IKZF1 = IKZF1 degradation assay, H929 cell line (Western blot densitometry); assay type: cell-based; conditions: for % of IKZF1 protein reduction, based on densitometry values: 24 h
Description: Cells were seeded on 6- or 12-well plates, and the compounds to be tested were added at the desired concentration range. […] After 6 or 24 h incubation (3TC, 5% CO2), cells were harvested, washed and cell lysates were prepared using RIPA lysis buffer. The amount of protein was determined via BCA assay, and the appropriate quantity was then loaded on the precast gel for the protein separation. After primary and secondary Ab staining, the membranes were washed and signals developed. The densitometry analysis was implemented to obtain the numeric values used later in the protein level evaluation process. […] The treatment with all compounds was carried out for 24 h.

CK1α = CK1α degradation assay, Kelly cell line (Western blot densitometry); assay type: cell-based; conditions: 24 h
Description: Cells were seeded on 6-well plates, and the compounds to be tested were added at the desired concentration range. […] After 24 h incubation (37° C., 5% CO2), cells were washed and cell lysates were prepared using RIPA lysis buffer. The amount of protein was determined via BCA assay, and the appropriate quantity was then loaded on the precast gel for the protein separation. After primary and secondary Ab staining, the membranes were washed and signals developed. The densitometry analysis was implemented to obtain the numeric values used later in the protein level evaluation process.
(§1) The treatment with all compounds was carried out for 24 h.
(§2) Densitometry values are normalized to the loading control ((3-ACTIN) and presented as % of DMSO control, using the following labels: […]

IKZF3 = IKZF3 degradation assay, H929 cell line (Western blot densitometry); assay type: cell-based; conditions: 24 h
Description: Cells were seeded on 6- or 12-well plates, and the compounds to be tested were added at the desired concentration range. […] After 24 h incubation (3TC, 5% CO2), cells were harvested, washed and cell lysates were prepared using RIPA lysis buffer. The amount of protein was determined via BCA assay, and the appropriate quantity was then loaded on the precast gel for the protein separation. After primary and secondary Ab staining, the membranes were washed and signals developed. The densitometry analysis was implemented to obtain the numeric values used later in the protein level evaluation process.
as §1, §2

CRBN-DDB1 protein complex, sequence (Q96SW2 whole entry): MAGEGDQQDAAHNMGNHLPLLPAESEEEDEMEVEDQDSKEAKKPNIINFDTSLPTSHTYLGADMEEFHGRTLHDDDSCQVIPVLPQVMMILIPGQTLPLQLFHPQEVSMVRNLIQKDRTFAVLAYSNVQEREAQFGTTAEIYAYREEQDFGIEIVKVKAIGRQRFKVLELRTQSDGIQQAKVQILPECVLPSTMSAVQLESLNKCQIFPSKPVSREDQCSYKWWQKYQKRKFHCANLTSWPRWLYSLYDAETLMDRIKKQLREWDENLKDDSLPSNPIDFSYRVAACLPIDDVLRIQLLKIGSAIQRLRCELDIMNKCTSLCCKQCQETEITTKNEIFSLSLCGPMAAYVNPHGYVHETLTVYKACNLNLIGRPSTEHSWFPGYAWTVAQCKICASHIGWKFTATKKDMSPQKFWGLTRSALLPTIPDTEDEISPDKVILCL
CRBN-DDB1 protein complex, sequence (Q16531 whole entry partner): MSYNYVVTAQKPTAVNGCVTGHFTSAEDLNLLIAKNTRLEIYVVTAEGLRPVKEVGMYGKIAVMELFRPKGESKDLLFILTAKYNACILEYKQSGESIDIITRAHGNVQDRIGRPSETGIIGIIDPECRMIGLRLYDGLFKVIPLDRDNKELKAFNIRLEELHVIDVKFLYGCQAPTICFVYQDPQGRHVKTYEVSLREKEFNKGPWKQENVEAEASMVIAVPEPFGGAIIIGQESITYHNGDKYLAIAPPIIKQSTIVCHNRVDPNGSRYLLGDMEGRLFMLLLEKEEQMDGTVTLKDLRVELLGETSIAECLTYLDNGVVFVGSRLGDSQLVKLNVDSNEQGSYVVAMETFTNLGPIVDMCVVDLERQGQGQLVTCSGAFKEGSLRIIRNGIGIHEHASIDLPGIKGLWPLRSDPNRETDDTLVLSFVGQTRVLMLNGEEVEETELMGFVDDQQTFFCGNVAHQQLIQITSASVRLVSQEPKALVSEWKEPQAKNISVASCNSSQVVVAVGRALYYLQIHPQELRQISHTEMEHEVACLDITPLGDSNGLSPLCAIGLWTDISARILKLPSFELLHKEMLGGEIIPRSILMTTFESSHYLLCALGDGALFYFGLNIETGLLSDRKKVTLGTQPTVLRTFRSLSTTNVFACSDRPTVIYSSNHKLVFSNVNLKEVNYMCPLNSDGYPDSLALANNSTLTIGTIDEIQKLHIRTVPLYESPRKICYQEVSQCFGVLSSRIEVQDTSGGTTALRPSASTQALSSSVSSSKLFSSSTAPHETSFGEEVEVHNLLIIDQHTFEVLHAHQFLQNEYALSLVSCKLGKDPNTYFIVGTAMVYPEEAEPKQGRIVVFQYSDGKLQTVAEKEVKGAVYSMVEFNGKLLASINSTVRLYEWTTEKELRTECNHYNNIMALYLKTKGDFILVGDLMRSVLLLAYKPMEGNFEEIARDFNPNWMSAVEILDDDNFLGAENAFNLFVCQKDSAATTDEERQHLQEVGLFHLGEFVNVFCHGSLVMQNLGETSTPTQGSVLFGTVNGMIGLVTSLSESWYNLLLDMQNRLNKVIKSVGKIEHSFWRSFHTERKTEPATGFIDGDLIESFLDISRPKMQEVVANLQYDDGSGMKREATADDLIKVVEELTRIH

SMILES | pKi [1] | % of IKZF1 protein reduction, IKZF 1 (24 H, 20 μM) (IKZF1) | also measured
COc1sccc1C(=O)N[C@@H]1CCC(=O)NC1=O [Compound 22, (R)—N-(2,6-dioxopiperidin-3-yl)-2-methoxythiophene-3-carboxamide] | 4.30 to 5.00 | ≤25% (≤25% for 0-25% of IKZF1 protein reduction) | % of CK1α protein reduction, based on densitometry values (CK1α; 20 μM): >25% (>25% for 26-74% of CK1α protein reduction)
COc1sccc1C(=O)NC1CCC(=O)NC1=O (centres unmarked) [Compound 20, N-(2,6-dioxopiperidin-3-yl)-2-methoxythiophene-3-carboxamide] | > 5.30 | ≤25% (≤25% for 0-25% of IKZF1 protein reduction) | % of IKZF3 protein reduction, based on densitometry values (IKZF3; 1 μM): ≤25% (≤25% for 0-25% of IKZF3 protein reduction); % of IKZF3 protein reduction, based on densitometry values (IKZF3; 10 μM): ≤25% (≤25% for 0-25% of IKZF3 protein reduction); % of IKZF1 protein reduction, based on densitometry values (IKZF1; 1 μM): ≤25% (≤25% for 0-25% of IKZF1 protein reduction); % of IKZF1 protein reduction, based on densitometry values (IKZF1; 10 μM): ≤25% (≤25% for 0-25% of IKZF1 protein reduction)
COc1sccc1C(=O)N[C@H]1CCC(=O)NC1=O [Compound 21, (S)—N-(2,6-dioxopiperidin-3-yl)-2-methoxythiophene-3-carboxamide] | > 5.30 | ≤25% (≤25% for 0-25% of IKZF1 protein reduction) | % of CK1α protein reduction, based on densitometry values (CK1α; 20 μM): >25% (>25% for 26-74% of CK1α protein reduction)
Nc1sccc1C(=O)NC1CCC(=O)NC1=O (centres unmarked) [Compound 36, 2-amino-N-(2,6-dioxopiperidin-3-yl)thiophene-3-carboxamide] | > 5.30 | ≤25% (≤25% for 0-25% of IKZF1 protein reduction) | 
O=C1CCC(NC(=O)c2scc3cccnc23)C(=O)N1 (centres unmarked) [Compound 107, N-(2,6-dioxopiperidin-3-yl)thieno[3,4-b]pyridine-7-carboxamide] | > 5.30 |  | % of IKZF3 protein reduction, based on densitometry values (IKZF3; 1 μM): ≤25% (≤25% for 0-25% of IKZF3 protein reduction); % of IKZF3 protein reduction, based on densitometry values (IKZF3; 10 μM): ≤25% (≤25% for 0-25% of IKZF3 protein reduction); % of IKZF1 protein reduction, based on densitometry values (IKZF1; 1 μM): ≤25% (≤25% for 0-25% of IKZF1 protein reduction); % of IKZF1 protein reduction, based on densitometry values (IKZF1; 10 μM): ≤25% (≤25% for 0-25% of IKZF1 protein reduction)
CNc1sc(Cl)cc1C(=O)NC1CCC(=O)NC1=O (centres unmarked) [Compound 16, 5-chloro-N-(2,6-dioxopiperidin-3-yl)-2-(methylamino)thiophene-3-carboxamide] | > 5.30 | ≤25% (≤25% for 0-25% of IKZF1 protein reduction) | 
COc1cscc1C(=O)NC1CCC(=O)NC1=O (centres unmarked) [Compound 54, N-(2,6-dioxopiperidin-3-yl)-4-methoxythiophene-3-carboxamide] | > 5.30 |  | % of CK1α protein reduction, based on densitometry values (CK1α; 1 μM): >25% (>25% for 26-74% of CK1α protein reduction); % of CK1α protein reduction, based on densitometry values (CK1α; 10 μM): >25% (>25% for 26-74% of CK1α protein reduction); % of CK1α protein reduction, based on densitometry values (CK1α; 20 μM): >25% (>25% for 26-74% of CK1α protein reduction)
O=C1CCC(NC(=O)c2cc(Cl)sc2NC(=O)Cc2ccccc2)C(=O)N1 (centres unmarked) [Compound 46, 5-chloro-N-(2,6-dioxopiperidin-3-yl)-2-(2-phenylacetamido)thiophene-3-carboxamide] | 5.00 to 5.30 | ≤25% (≤25% for 0-25% of IKZF1 protein reduction) | 
COc1sc(Cl)cc1C(=O)NC1CCC(=O)NC1=O (centres unmarked) [Compound 37, 5-chloro-N-(2,6-dioxopiperidin-3-yl)-2-methoxythiophene-3-carboxamide] | > 5.30 | ≤25% (≤25% for 0-25% of IKZF1 protein reduction) | 
CS(=O)(=O)Nc1sccc1C(=O)NC1CCC(=O)NC1=O (centres unmarked) [Compound 13, N-(2,6-dioxopiperidin-3-yl)-2-methanesulfonamidothiophene-3-carboxamide] | 5.00 to 5.30 | ≤25% (≤25% for 0-25% of IKZF1 protein reduction) | 
C[C@H](O)C(=O)Nc1sc(Cl)cc1C(=O)NC1CCC(=O)NC1=O (stereo partly drawn) [Compound 17, 5-chloro-N-(2,6-dioxopiperidin-3-yl)-2-[(2S)-2-hydroxypropanamido]thiophene-3-carboxamide] | 4.30 to 5.00 | ≤25% (≤25% for 0-25% of IKZF1 protein reduction) | 
CCCCC(=O)Nc1sc(Cl)cc1C(=O)NC1CCC(=O)NC1=O (centres unmarked) [Compound 3, 5-chloro-N-(2,6-dioxopiperidin-3-yl)-2-pentanamidothiophene-3-carboxamide] | > 5.30 | ≤25% (≤25% for 0-25% of IKZF1 protein reduction) | 
CC(=O)Nc1sc(C2CC2)c(Cl)c1C(=O)NC1CCC(=O)NC1=O (centres unmarked) [Compound 19, 4-chloro-5-cyclopropyl-N-(2,6-dioxopiperidin-3-yl)-2-acetamidothiophene-3-carboxamide] | 5.00 to 5.30 | ≤25% (≤25% for 0-25% of IKZF1 protein reduction) | 
CC(=O)Nc1sc(C2CC2)cc1C(=O)NC1CCC(=O)NC1=O (centres unmarked) [Compound 44, 5-cyclopropyl-N-(2,6-dioxopiperidin-3-yl)-2-acetamidothiophene-3-carboxamide] | > 5.30 | ≤25% (≤25% for 0-25% of IKZF1 protein reduction) | 
O=C1CCC(NC(=O)c2csc(-c3ccccc3)c2)C(=O)N1 (centres unmarked) [Compound 57, N-(2,6-dioxopiperidin-3-yl)-5-phenylthiophene-3-carboxamide] | > 5.30 | ≤25% (≤25% for 0-25% of IKZF1 protein reduction) | 
CC(=O)Nc1sccc1C(=O)N(C)C1CCC(=O)NC1=O (centres unmarked) [Compound 5, N-(2,6-dioxopiperidin-3-yl)-2-acetamido-N-methylthiophene-3-carboxamide] | 4.30 to 5.00 | ≤25% (≤25% for 0-25% of IKZF1 protein reduction) | 

Second part, led by results:

pKi [1] | SMILES | % of IKZF1 protein reduction, IKZF 1 (24 H, 20 μM) (IKZF1) | also measured
5.00 to 5.30 | CC(=O)Nc1sc(Cl)cc1C(=O)NC1CCC(=O)NC1=O (centres unmarked) [Compound 12, 5-Chloro-N-(2,6-dioxopiperidin-3-yl)-2-acetamidothiophene-3-carboxamide] | ≤25% (≤25% for 0-25% of IKZF1 protein reduction) | 
5.00 to 5.30 | CC(=O)Nc1sc(C(F)(F)F)cc1C(=O)NC1CCC(=O)NC1=O (centres unmarked) [Compound 42, N-(2,6-dioxopiperidin-3-yl)-2-acetamido-5-(trifluoromethyl)thiophene-3-carboxamide] | ≤25% (≤25% for 0-25% of IKZF1 protein reduction) | 
4.30 to 5.00 | COc1ncc(C(=O)NC2CCC(=O)NC2=O)s1 (centres unmarked) [Compound 75, N-(2,6-dioxopiperidin-3-yl)-2-methoxythiazole-5-carboxamide] | ≤25% (≤25% for 0-25% of IKZF1 protein reduction) | 
> 5.30 | CC(C)(C)OC(=O)Nc1ncc(C(=O)NC2CCC(=O)NC2=O)s1 (centres unmarked) [Compound 71, tert-butyl (5-((2,6-dioxopiperidin-3-yl)carbamoyl)thiazol-2-yl)carbamate] | ≤25% (≤25% for 0-25% of IKZF1 protein reduction) | 
4.30 to 5.00 | O=C1CCC(NC(=O)c2cnc(CNC(=O)OCc3ccccc3)s2)C(=O)N1 (centres unmarked) [Compound 74, benzyl ((5-((2,6-dioxopiperidin-3-yl)carbamoyl)thiazol-2-yl)methyl)carbamate] | ≤25% (≤25% for 0-25% of IKZF1 protein reduction) | 
4.30 to 5.00 | CC(=O)Nc1cc(Cl)sc1C(=O)NC1CCC(=O)NC1=O (centres unmarked) [Compound 18, 5-chloro-N-(2,6-dioxopiperidin-3-yl)-3-acetamidothiophene-2-carboxamide] | ≤25% (≤25% for 0-25% of IKZF1 protein reduction) | 
4.30 to 5.00 | CC(C)(C)OC(=O)Nc1sccc1C(=O)NC1CCC(=O)NC1=O (centres unmarked) [Compound 1, tert-butyl (3-((2,6-dioxopiperidin-3-yl)carbamoyl)thiophen-2-yl)carbamate] | ≤25% (≤25% for 0-25% of IKZF1 protein reduction) | 
4.30 to 5.00 | CC(C)(C)c1ncc(C(=O)NC2CCC(=O)NC2=O)s1 (centres unmarked) [Compound 73, 2-(tert-butyl)-N-(2,6-dioxopiperidin-3-yl)thiazole-5-carboxamide] | ≤25% (≤25% for 0-25% of IKZF1 protein reduction) | 
